Data reported in ChEMBL document CHEMBL3351308, “Allosteric modulation of the G protein-coupled US28 receptor of human cytomegalovirus: are the small-weight inverse agonist of US28 'camouflaged' agonists?” (Bioorg Med Chem Lett, 2014).
Positions count from the first letter of the chain named. Active and inactive are the calls of the source. The rule behind the calls is not given here.

How the values were obtained:
[1] = molecular target: T1, G-protein coupled receptor homolog US28 (Human cytomegalovirus (strain AD169) (HHV-5) (Human herpesvirus 5)) (UniProt P69332); experiment: Allosteric modulatory activity at FLAG-tagged wild type human cytomegalovirus US28 receptor expressed in HEK293T cells by PathDetectElk1 assay relative to basal level; assay type: cell-based; set-up: concentration or dose not given beside the values; settings: Human betaherpesvirus 5; HEK-293T
T1 sequence (whole entry): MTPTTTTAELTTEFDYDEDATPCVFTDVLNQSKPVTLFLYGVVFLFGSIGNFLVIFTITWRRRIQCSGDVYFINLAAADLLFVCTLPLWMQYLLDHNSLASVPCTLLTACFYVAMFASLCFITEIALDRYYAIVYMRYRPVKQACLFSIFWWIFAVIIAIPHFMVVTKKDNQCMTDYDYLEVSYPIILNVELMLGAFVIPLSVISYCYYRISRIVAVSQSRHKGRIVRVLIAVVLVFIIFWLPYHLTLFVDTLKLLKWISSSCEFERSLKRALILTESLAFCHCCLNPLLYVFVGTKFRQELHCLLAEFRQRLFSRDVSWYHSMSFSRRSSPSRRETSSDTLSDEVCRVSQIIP

[2] = molecular target: G protein-coupled receptor (Human betaherpesvirus 5, UniProt Q9IP65); experiment: Allosteric modulatory activity at FLAG-tagged human cytomegalovirus US28 receptor delta300 mutant expressed in HEK293T cells by PathDetectElk1 assay; assay type: cell-based; settings: hek-293t
Chain of G protein-coupled receptor (Q9IP65 1-354): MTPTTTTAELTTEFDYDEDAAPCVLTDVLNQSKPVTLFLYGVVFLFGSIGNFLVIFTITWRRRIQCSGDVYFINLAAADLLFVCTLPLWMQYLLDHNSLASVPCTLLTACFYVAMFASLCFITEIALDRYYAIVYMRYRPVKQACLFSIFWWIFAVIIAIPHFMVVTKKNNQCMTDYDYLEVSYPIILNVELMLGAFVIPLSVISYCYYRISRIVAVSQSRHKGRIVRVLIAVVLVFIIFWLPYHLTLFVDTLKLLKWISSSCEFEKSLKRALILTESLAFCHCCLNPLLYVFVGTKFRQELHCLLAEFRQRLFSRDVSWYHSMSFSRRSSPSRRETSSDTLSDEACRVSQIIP

[3] = molecular target: T2, G protein-coupled receptor (Human betaherpesvirus 5) (UniProt Q9IP65); experiment: Allosteric modulatory activity at FLAG-tagged human cytomegalovirus US28 receptor delta300 mutant expressed in HEK293T cells by PathDetectElk1 assay relative to basal level; assay type: cell-based; settings: HEK-293T
T2 sequence (whole entry): T1 sequence (whole entry) with T21A, F25L, D170N, R267K, V346A

[4] = molecular target: T3, G-protein coupled receptor homolog US28 (Human cytomegalovirus (strain AD169) (HHV-5) (Human herpesvirus 5), UniProt P69332); experiment: Allosteric modulatory activity at FLAG-tagged wild type human cytomegalovirus US28 receptor expressed in HEK293T cells by PathDetectElk1 assay; assay type: cell-based, Human betaherpesvirus 5, HEK-293T
T3 sequence (P69332 whole entry): T1 sequence (whole entry)

[5] = molecular target: T2, G protein-coupled receptor (Human betaherpesvirus 5); experiment: Increase in CX3CL1/Fractalkine binding to FLAG-tagged human cytomegalovirus US28 receptor delta300 mutant expressed in HEK293T cells; assay type: cell-based; settings: HEK-293T
[6] = molecular target: T2, G protein-coupled receptor (Human betaherpesvirus 5); experiment: Effect on CX3CL1/Fractalkine binding to FLAG-tagged human cytomegalovirus US28 receptor delta300 mutant expressed in HEK293T cells; assay type: cell-based; settings: HEK-293T
[7] = molecular target: T2, G protein-coupled receptor (Human betaherpesvirus 5); experiment: Allosteric modulatory activity at FLAG-tagged human cytomegalovirus US28 receptor delta300 mutant expressed in HEK293T cells at 10 uM in presence of CX3CL1/Fractalkine by PathDetectElk1 assay; assay type: cell-based; settings: HEK-293T
[8] = molecular target: T2, G protein-coupled receptor (Human betaherpesvirus 5); experiment: Allosteric modulatory activity at FLAG-tagged human cytomegalovirus US28 receptor delta300 mutant expressed in HEK293T cells assessed as reduction in CX3CL1/Fractalkine-induced response by PathDetectElk1 assay; assay type: cell-based; settings: HEK-293T
[9] = molecular target: T2, G protein-coupled receptor (Human betaherpesvirus 5); experiment: Allosteric modulatory activity at FLAG-tagged human cytomegalovirus US28 receptor delta300 mutant expressed in HEK293T cells assessed as reduction in CCL5/Rantes-induced response by PathDetectElk1 assay; assay type: cell-based; settings: HEK-293T

| SMILES | Efficacy [1] [%] | EC50 [2] [nM] | pEC50 [2] | Efficacy [3] [%] | EC50 [4] [nM] | Activity [5] | Activity [6] | Activity [7] | Activity [8] | Activity [9] |
| --- | --- | --- | --- | --- | --- | --- | --- | --- | --- | --- |
| CCCCCCCCCC(=O)N(CCN(C)C)CC1(C)Cc2ccccc2C(=O)N1 (stereo not given) | -20 | > 10000 | < 5 | > 180 | 1500 | – | – | – | – | – |
| CC1(CO)Cc2ccccc2C(=O)N1c1ccccc1 (stereo not given) | 41 | 930 | 6.03 | 27 | 4400 | Active | – | – | – | – |
| N#CC(CCCN1CCC(O)(c2ccc(Cl)cc2)CC1)(c1ccccc1)c1ccccc1 [BERLEX COMPOUND] | -22 | > 10000 | < 5 | > 180 | 4500 | – | – | – | – | – |
| CSc1ccc2c(c1)C(N1CCN(C)CC1)Cc1ccccc1S2 (stereo not given) [METITEPINE] | 10 | 330 | 6.48 | 110 | 350 | – | – | – | – | – |
| CC1(COC(=O)Cc2ccccc2)Cc2ccccc2CN1C(=O)Cc1ccccc1 (stereo not given) | -37 | 2500 | 5.59 | -29 | 3400 | – | inactive | inactive | Dose-dependent effect | Active |
| CC1(CCO)Cc2ccccc2C(=O)N1c1ccccc1 (stereo not given) | -14 | 3100 | 5.51 | -21 | 1000 | – | – | – | – | – |
